In brackets after ≈: the same amount, converted by molar mass. Activity calls are given as the source filed them. The rule behind the calls is not given here.
Legend:
P2X purinoceptor 7 [1] = molecular target: T1, P2X purinoceptor 7 (Homo sapiens, UniProt Q99572); assay: Antagonist activity at human recombinant P2X7 receptor assessed as inhibition of BzATP induced calcium flux by FLIPR assay; type: functional
T1 sequence (Q99572 whole entry): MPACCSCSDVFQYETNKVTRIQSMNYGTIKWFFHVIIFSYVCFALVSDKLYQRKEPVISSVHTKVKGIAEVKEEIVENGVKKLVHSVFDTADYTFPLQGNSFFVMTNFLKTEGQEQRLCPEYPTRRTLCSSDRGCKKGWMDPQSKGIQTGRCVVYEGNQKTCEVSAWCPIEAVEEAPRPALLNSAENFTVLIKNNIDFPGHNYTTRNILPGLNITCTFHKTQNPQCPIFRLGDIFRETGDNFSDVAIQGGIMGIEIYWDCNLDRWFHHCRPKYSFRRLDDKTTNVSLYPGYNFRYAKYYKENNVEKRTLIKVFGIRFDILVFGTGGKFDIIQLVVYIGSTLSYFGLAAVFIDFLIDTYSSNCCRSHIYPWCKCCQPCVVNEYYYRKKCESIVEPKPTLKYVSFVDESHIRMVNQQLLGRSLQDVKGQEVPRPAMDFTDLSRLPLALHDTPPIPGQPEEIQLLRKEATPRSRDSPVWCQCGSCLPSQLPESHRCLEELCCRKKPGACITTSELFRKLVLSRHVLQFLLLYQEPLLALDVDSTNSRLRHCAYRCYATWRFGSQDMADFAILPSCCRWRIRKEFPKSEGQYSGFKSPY

Blood [2] = assay: Inhibition of IL1-beta release in LPS/ATP stimulated human whole blood; type: functional, tissue-based
P2X purinoceptor 7 [3] = molecular target: T2, P2X purinoceptor 7 (Rattus norvegicus, UniProt Q64663); assay: Antagonist activity at rat recombinant P2X7 receptor assessed as inhibition of BzATP induced calcium flux by FLIPR assay; type: functional
T2 sequence (Q64663 whole entry): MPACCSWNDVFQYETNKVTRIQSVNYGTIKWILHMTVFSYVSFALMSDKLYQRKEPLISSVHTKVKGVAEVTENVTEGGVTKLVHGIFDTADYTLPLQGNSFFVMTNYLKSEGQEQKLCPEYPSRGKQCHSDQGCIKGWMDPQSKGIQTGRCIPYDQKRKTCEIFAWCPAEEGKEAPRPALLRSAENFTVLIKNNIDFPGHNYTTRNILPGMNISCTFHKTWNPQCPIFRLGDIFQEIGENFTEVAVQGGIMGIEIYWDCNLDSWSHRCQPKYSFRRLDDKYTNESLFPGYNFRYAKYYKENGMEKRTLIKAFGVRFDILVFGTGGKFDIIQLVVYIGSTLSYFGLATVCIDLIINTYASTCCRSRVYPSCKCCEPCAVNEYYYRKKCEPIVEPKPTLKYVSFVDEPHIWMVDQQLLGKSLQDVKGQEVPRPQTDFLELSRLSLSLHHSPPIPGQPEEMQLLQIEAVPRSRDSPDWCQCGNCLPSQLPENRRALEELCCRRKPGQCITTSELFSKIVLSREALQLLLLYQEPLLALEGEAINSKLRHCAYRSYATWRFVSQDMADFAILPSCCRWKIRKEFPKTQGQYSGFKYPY

[4] = Metabolic stability in rat liver microsomes assessed as compound remaining after 1 hr; type: ADME, Microsome; settings: read-out: Stability
[5] = Plasma clearance in rat at 5 mg/kg, iv; type: ADME, organism-based; parameters: dose 5 mg/kg, route intravenous
[6] = Metabolic stability in rat liver microsomes assessed as compound remaining after 25 mins; type: ADME, Microsome; settings: read-out: Stability
[7] = molecular target: P2X2/P2X3 heterotrimeric receptor (Homo sapiens) (UniProt Q9UBL9+P56373); assay: Antagonist activity at P2X2/3 receptor at 10 uM; type: functional
[8] = molecular target: T3, P2X purinoceptor 3 (Homo sapiens) (UniProt P56373); assay: Antagonist activity at P2X3 receptor at 10 uM; type: functional
T3 sequence (whole entry): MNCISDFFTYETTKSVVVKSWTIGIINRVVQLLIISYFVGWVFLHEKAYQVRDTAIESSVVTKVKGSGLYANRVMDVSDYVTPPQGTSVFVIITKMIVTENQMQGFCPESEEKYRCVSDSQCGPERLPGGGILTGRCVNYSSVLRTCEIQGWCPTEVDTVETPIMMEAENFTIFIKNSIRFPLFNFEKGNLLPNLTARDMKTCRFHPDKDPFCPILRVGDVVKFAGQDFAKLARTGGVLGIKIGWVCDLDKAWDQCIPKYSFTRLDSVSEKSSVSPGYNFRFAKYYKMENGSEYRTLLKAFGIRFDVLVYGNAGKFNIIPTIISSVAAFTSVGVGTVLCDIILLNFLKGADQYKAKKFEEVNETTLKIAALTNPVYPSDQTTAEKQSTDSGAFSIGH

[9] = molecular target: T4, P2X purinoceptor 4 (Homo sapiens) (UniProt Q99571); assay: Antagonist activity at P2X4 receptor at 10 uM; type: functional
T4 sequence (whole entry): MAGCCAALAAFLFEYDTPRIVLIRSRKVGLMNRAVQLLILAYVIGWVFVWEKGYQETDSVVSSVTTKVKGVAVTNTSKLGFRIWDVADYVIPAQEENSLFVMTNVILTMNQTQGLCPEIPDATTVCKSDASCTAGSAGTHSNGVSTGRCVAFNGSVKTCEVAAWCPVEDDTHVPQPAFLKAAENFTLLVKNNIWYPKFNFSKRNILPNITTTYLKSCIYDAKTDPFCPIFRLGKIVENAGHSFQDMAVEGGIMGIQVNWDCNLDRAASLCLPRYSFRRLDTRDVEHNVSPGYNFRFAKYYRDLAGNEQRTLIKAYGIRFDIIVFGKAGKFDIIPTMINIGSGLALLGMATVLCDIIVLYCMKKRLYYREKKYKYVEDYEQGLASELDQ

[10] = molecular target: P2Y purinoceptor 2 (Homo sapiens) (UniProt P41231); assay: Antagonist activity at P2Y2 receptor at 10 uM; type: functional
P2Y purinoceptor 2 (Homo sapiens), sequence (P41231 whole entry): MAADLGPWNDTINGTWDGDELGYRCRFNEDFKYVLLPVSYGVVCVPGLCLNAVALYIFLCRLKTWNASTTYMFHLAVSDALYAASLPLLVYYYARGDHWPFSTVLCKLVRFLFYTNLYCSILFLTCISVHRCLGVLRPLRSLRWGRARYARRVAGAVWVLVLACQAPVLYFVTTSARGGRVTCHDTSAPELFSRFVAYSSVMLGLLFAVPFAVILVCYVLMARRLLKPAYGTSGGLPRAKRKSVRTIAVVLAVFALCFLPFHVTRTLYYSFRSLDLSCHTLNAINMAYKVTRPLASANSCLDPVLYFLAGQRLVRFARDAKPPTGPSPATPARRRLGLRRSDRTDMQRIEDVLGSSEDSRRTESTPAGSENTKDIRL

[11] = Volume of distribution at steady state in rat at 5 mg/kg, iv; type: ADME, organism-based; parameters: dose 5 mg/kg, route intravenous; settings: in vivo, read-out: Vdss
[12] = Half life in rat at 5 mg/kg, iv; type: ADME, organism-based; parameters: dose 5 mg/kg, route intravenous; settings: in vivo
Blood [13] = assay: Inhibition of IL18 release in LPS/ATP stimulated human whole blood; type: functional, tissue-based
[14] = Oral bioavailability in rat; type: ADME, organism-based; settings: in vivo
[15] = Aqueous solubility of the compound; type: physicochemical; settings: buffer

Compound `CC(C)C1CN(C(=O)Nc2cccc(F)c2)CCN1C(=Nc1cccc2c1CCCN2)NC#N` (configuration not stated) has an IC50 (P2X purinoceptor 7 [1]) of 60 nM and an IC50 (Blood [2]) of 460 nM.

In the case of `CN(C)Cc1ccccc1N=C(NC#N)N1CCN(C(=O)Nc2ccc(Cl)cc2)C(c2ccccc2)C1` (configuration not stated), the IC50 (P2X purinoceptor 7 [1]) is reported as 480 nM and the IC50 (P2X purinoceptor 7 [3]) is reported as 1070 nM.

In the case of `Cc1ccccc1N=C(NC#N)N1CCN(C(=O)N(C)c2ccc(Cl)cc2)C(c2ccccc2)C1` (configuration not stated), the IC50 (P2X purinoceptor 7 [1]) is reported as 1030 nM and the IC50 (P2X purinoceptor 7 [3]) is reported as 290 nM.

Compound `COc1ccc(CC(=O)N2CCN(C(=Nc3ccccc3C)NC#N)CC2c2ccccc2)cc1OC` (configuration not stated) has an IC50 (P2X purinoceptor 7 [1]) of 630 nM.

`Cc1ccccc1NC(=O)N1CCN(C(=O)Nc2ccc(Cl)cc2)C(c2ccccc2)C1` (configuration not stated) gave an IC50 (P2X purinoceptor 7 [1]) of 780 nM and an IC50 (P2X purinoceptor 7 [3]) of 620 nM.

With `Cc1ccc(N/C(=N\C#N)N2CCN(C(=O)Nc3ccc(Cl)cc3)CC2C(C)C)c2cccnc12` (configuration not stated) the remaining at 1 h [4] was 64%.

In the case of `Cc1ccccc1N=C(NC#N)N1CCN(S(=O)(=O)c2ccc(Cl)cc2)C(c2ccccc2)C1` (configuration not stated), the IC50 (P2X purinoceptor 7 [1]) is reported as 540 nM and the IC50 (P2X purinoceptor 7 [3]) is reported as 4060 nM.

In the case of `CC(C)C1CN(C(=O)Nc2ccc(Cl)cc2)CCN1/C(=N/C#N)Nc1cccc2[nH]ccc12` (configuration not stated), the IC50 (P2X purinoceptor 7 [1]) is reported as 45 nM, the IC50 (P2X purinoceptor 7 [3]) is reported as 110 nM and the IC50 (Blood [2]) is reported as 470 nM.

Compound `CC(C)C1CN(C(=O)Nc2ccc(Cl)cc2)CCN1C(=Nc1cccc2ncccc12)NC#N` (configuration not stated) has an IC50 (P2X purinoceptor 7 [1]) of 40 nM, an IC50 (P2X purinoceptor 7 [3]) of 57 nM and a clearance [5] of 53.3 mL/min/kg. It also gave a remaining at 25 min [6] of 43%, a remaining at 1 h [4] of 43% and an IC50 (Blood [2]) of 121 nM.

`CC(C)C1CN(C(=O)Nc2cccc(F)c2)CCN1C(=Nc1cccc2occc12)NC#N` (configuration not stated) showed an IC50 (P2X purinoceptor 7 [1]) of 24900 nM.

`Cc1ccccc1N=C(NC#N)N1CCN(Cc2ccc(Cl)cc2)C(c2ccccc2)C1` (configuration not stated) showed an IC50 (P2X purinoceptor 7 [1]) greater than 10000 nM and an IC50 (P2X purinoceptor 7 [3]) greater than 10000 nM.

Compound `Cn1cnc2c(N=C(NC#N)N3CCN(C(=O)Nc4ccc(Cl)cc4)C(c4ccccc4)C3)cccc21` (configuration not stated) has an IC50 (P2X purinoceptor 7 [1]) of 1660 nM and an IC50 (P2X purinoceptor 7 [3]) of 5190 nM.

For `Cc1ccc2c(N/C(=N\C#N)N3CCN(C(=O)Nc4ccc(Cl)cc4)CC3C(C)C)cccc2n1` (configuration not stated), the IC50 (Blood [2]) was 120 nM, the Activity [7] was “inactive” and the Activity [8] was “inactive”. For the same compound, the Activity [9] was “inactive” and the Activity [10] was “inactive”.

Work on `Cc1ccccc1N/C(=N\C#N)N1CCN(C(=O)Nc2ccc(Cl)cc2)C(C(C)C)C1` (configuration not stated) yielded an IC50 (P2X purinoceptor 7 [1]) of 112 nM, an IC50 (P2X purinoceptor 7 [3]) of 110 nM and an IC50 (Blood [2]) of 980 nM.

In the case of `Cc1ccccc1N=C(NC#N)N1CCN(C(=O)Nc2ccc(Cl)cc2)CC1C(C)C` (configuration not stated), the IC50 (P2X purinoceptor 7 [1]) is reported as 60 nM and the IC50 (P2X purinoceptor 7 [3]) is reported as 125 nM.

With `Cc1ccccc1N=C(NC#N)N1CCN(C(=O)Nc2ccc(Cl)cc2)C(c2ccccc2)C1` (configuration not stated) the IC50 (P2X purinoceptor 7 [1]) was 132 nM, the IC50 (P2X purinoceptor 7 [3]) was 95 nM and the Vd [11] was 5.3 L/kg. For the same compound, the clearance [5] was 68.3 mL/min/kg, the half-life [12] was 0.9 h and the IC50 (Blood [2]) was 1190 nM. For the same compound, the IC50 (Blood [13]) was 1260 nM.

Work on `COc1ccc(NC(=O)N2CCN(C(=Nc3ccccc3C)NC#N)CC2c2ccccc2)cc1OC` (configuration not stated) yielded an IC50 (P2X purinoceptor 7 [1]) of 25 nM and an IC50 (P2X purinoceptor 7 [3]) of 178 nM.

`N#CNC(=Nc1cccc2[nH]ccc12)N1CCN(C(=O)Nc2ccc(Cl)cc2)C(c2ccccc2)C1` (configuration not stated) showed an IC50 (P2X purinoceptor 7 [1]) of 130 nM, an IC50 (P2X purinoceptor 7 [3]) of 56 nM and an IC50 (Blood [2]) of 12200 nM.

Compound `CC(C)C1CN(C(=O)Nc2ccc(Cl)cc2)CCN1C(=Nc1cccc2c1CCNC2)NC#N` (configuration not stated) has an IC50 (P2X purinoceptor 7 [1]) of 110 nM, an IC50 (P2X purinoceptor 7 [3]) of 180 nM and an IC50 (Blood [2]) of 210 nM.

Compound `Cc1ccccc1N/C(=N/C(N)=O)N1CCN(C(=O)Nc2ccc(Cl)cc2)C(c2ccccc2)C1` (configuration not stated) has an IC50 (P2X purinoceptor 7 [1]) of 6400 nM and an IC50 (P2X purinoceptor 7 [3]) of 10300 nM.

For `Cc1ccccc1N/C(=C/[N+](=O)[O-])N1CCN(C(=O)Nc2ccc(Cl)cc2)C(c2ccccc2)C1` (configuration not stated), the IC50 (P2X purinoceptor 7 [1]) was 310 nM and the IC50 (P2X purinoceptor 7 [3]) was 3110 nM.

Compound `N#C/N=C(\Nc1cccnc1)N1CCN(C(=O)Nc2ccc(Cl)cc2)C(c2ccccc2)C1` (configuration not stated) has an IC50 (P2X purinoceptor 7 [1]) of 1330 nM and an IC50 (P2X purinoceptor 7 [3]) of 2040 nM.

`CC(C)C1CN(C(=O)Nc2ccc(Cl)cc2)CCN1/C(=N/C#N)Nc1cccc2nc(F)ccc12` (configuration not stated) gave a remaining at 1 h [4] of 60% and an IC50 (Blood [2]) of 2640 nM.

`CC(C)C1CN(C(=Nc2cccc3ncccc23)NC#N)CCN1C(=O)Nc1ccc(Cl)cc1` (configuration not stated) gave an IC50 (P2X purinoceptor 7 [1]) of 67 nM, an IC50 (P2X purinoceptor 7 [3]) of 93 nM and an IC50 (Blood [2]) of 880 nM.

`Cc1ccc2c(N=C(NC#N)N3CCN(C(=O)Nc4ccc(Cl)cc4)CC3C(C)C)cccc2n1` (configuration not stated) showed an IC50 (P2X purinoceptor 7 [1]) of 93 nM, an IC50 (P2X purinoceptor 7 [3]) of 151 nM and a Vd [11] of 11.8 L/kg. The clearance [5] was 23.3 mL/min/kg, the half-life [12] was 4.4 h and the remaining at 1 h [4] was 74%. For the same compound, the bioavailability [14] was 5% and the solubility [15] was 19 µg/mL (≈ 38.8 µM).

`CC(C)C1CN(C(=O)Nc2cccc(F)c2)CCN1C(=Nc1cccc2[nH]ncc12)NC#N` (configuration not stated) gave an IC50 (P2X purinoceptor 7 [1]) of 250 nM and an IC50 (Blood [2]) of 1590 nM.
